For orientation: IC50 means the point on the concentration scale where inhibition reaches its midpoint. A higher IC50 goes with lower potency.

We go through one compound from article PMC4401082 (European journal of medicinal chemistry, 2014).

For assay [1], the target named is T1, oCOX-1 (ovine cyclooxygenase-1) (Ovis aries, UniProt P05979).
T1 sequence (P05979 25-600): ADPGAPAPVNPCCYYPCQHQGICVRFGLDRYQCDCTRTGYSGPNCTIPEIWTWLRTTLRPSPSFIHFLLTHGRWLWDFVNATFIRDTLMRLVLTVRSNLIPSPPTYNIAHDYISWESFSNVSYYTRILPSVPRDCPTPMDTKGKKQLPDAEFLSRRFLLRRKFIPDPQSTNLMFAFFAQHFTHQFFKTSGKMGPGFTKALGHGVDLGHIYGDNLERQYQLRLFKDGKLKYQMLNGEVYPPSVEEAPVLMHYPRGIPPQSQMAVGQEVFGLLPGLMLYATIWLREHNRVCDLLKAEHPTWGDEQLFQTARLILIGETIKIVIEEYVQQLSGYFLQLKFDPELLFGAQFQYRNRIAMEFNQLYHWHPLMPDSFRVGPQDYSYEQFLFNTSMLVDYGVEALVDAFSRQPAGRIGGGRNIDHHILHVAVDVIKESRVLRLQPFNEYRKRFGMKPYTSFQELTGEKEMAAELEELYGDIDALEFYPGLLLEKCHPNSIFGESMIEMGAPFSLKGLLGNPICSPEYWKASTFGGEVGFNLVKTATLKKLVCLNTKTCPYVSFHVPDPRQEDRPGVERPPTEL
The assay can be described thus: [[…]-14C]-arachidonic acid TLC COX activity assay with purified enzyme. The format is biochemical.

Assay [2] concerns the target hCOX-1 (cyclooxygenase-1) (Homo sapiens, UniProt P23219). The assay is described as follows: [[…]-14C]-arachidonic acid metabolism in intact OVCAR-3 cells. The format is cell-based.

Sequence of hCOX-1 (cyclooxygenase-1) (P23219 24-599): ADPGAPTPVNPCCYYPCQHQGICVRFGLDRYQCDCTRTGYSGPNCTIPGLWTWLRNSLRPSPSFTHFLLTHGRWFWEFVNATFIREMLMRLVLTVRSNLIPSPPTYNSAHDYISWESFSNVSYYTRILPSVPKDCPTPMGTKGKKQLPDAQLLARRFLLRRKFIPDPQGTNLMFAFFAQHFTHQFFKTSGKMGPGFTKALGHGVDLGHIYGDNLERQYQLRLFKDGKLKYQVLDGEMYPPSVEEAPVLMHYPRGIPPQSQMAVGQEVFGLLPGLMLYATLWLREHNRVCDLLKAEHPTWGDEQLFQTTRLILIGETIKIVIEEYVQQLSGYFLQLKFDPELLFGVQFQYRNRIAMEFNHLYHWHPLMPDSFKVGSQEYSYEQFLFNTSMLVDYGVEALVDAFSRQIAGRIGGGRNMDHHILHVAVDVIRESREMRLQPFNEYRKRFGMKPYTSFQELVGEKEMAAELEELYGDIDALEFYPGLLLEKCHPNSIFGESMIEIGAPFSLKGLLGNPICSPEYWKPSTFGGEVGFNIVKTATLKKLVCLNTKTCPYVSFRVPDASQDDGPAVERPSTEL

As for `FCc1onc(-c2ccc(Cl)o2)c1-c1ccccc1` [[19F]-P6, 3-(5-chlorofuran-2-yl)-5-(fluoromethyl)-4-phenylisoxazole], the IC50 in assay [1] was 2 µM; in assay [2], 1.37 µM.
